From patent US20040260084A1, “Novel c-3 s/o-and s/n formaldehe acetal derivatives of cephalosporins and their use as antibotics” (priority 2001, published 2004)

How the values were obtained:
[1] = system: Escherichia coli DSM 1103; test: MIC, agar dilution (DIFCO Bacto Nutrient Agar); type: cell-based
Protocol: (§1) The plates were then inoculated with a bacterial suspension obtained by diluting an overnight culture (37° C.) in DIFCO Bacto Nutrient Broth (pH 6.8) with sterile 1% NaCl (1:1000) using a 19 pin inoculator (Mast Diagnostics). MIC's […] were determined 18 h after incubation at 37° C.
(§2) Inoculum effect after inoculation with an non-diluted overnight culture (in comparison to Table 1). MIC's (μ/ml) were determined 18 h after incubation at 37° C.

[2] = system: Escherichia coli TEM 1; test: MIC, agar dilution (DIFCO Bacto Nutrient Agar); type: cell-based
Protocol: as §1, §2

[3] = system: Staph. aureus 25768; test: MIC, agar dilution (DIFCO Bacto Nutrient Agar); type: cell-based
Protocol: as §1, §2

[4] = system: Staph. aureus DSM 1104; test: MIC, agar dilution (DIFCO Bacto Nutrient Agar); type: cell-based
Protocol: as §1, §2

[5] = system: Staph. aureus resistant; test: MIC, agar dilution (DIFCO Bacto Nutrient Agar); type: cell-based
Protocol: as §1, §2

[6] = Chemical stability, half-life of hydrolysis by UV spectroscopy; type: physicochemical; settings: 37° C.
Protocol: The half-lives (h) of hydrolysis was determined at 37° C. by UV spectroscopy in physiological phosphate buffer and in physiological NaCl solution containing 0.01 N HCl.

[7] = Blood serum stability, agar diffusion test with Escherichia coli TEM 1; type: in vitro ADME; settings: sterile bovine serum (OXOID), 37° C.
Protocol: The stability in blood serum was determined microbiologically using agar diffusion test with Escherichia coli TEM 1. The compounds I were incubated with sterile bovine serum (OXOID) at 37° C. At 0 h, 1 h, 2 h and 4 h intervals aliquot samples were spotted and remaining amounts of active antibiotic were calculated from the inhibition diameters (18-30 mm) in comparison with those (15-30 mm) obtained with 30 μg, 15 μg, 7.5μ and 3.75 μg of antibiotic.

[8] = system: E. coli 3981 TEM-1; test: In vivo activity, experimental systemic infection in mice; settings: Escherichia coli
Protocol: In vivo activity (ED50) was determined. Mice were infected intraperitoneally with ca. […] of E. coli 3981 TEM-1. Untreated animals died within 48 h after infection. Compounds were administered by oral or subcutaneous route a first time 10 min after infection and a second time 4 h later. The 50% effective dose (ED50) was calculated by the Spearman-Kärber method from the percentages of animals surviving to day 7 at each dose.

[9] = Escherichia coli DSM 1103, inoculum ca. 10^4, 18 h at 37° C.
[10] = Escherichia coli DSM 1103, inoculum ca. 10^7 (non-diluted overnight culture), 18 h at 37° C.
[11] = Escherichia coli TEM 1, inoculum ca. 10^4, 18 h at 37° C.
[12] = Escherichia coli TEM 1, inoculum ca. 10^7 (non-diluted overnight culture), 18 h at 37° C.
[13] = Staph. aureus 25768, inoculum ca. 10^4, 18 h at 37° C.
[14] = Staph. aureus 25768, inoculum ca. 10^7 (non-diluted overnight culture), 18 h at 37° C.
[15] = Staph. aureus DSM 1104, inoculum ca. 10^4, 18 h at 37° C.
[16] = Staph. aureus DSM 1104, inoculum ca. 10^7 (non-diluted overnight culture), 18 h at 37° C.
[17] = inoculum ca. 10^4, 18 h at 37° C.
[18] = inoculum ca. 10^7 (non-diluted overnight culture), 18 h at 37° C.
[19] = pH 2, physiological NaCl solution containing 0.01 N HCl
[20] = pH 7.4, physiological phosphate buffer

Row | SMILES | MIC [1, 9] | MIC [1, 10] | MIC [2, 11] | MIC [2, 12] | MIC [3, 13] | MIC [3, 14] | MIC [4, 15] | MIC [4, 16] | MIC [5, 17] | MIC [5, 18] | half-life [6, 19] | half-life [6, 20] | half-life [7] | ED50 ([8]; 3981TEM1, po) | ED50 ([8]; 3981TEM1, sc)
1 | COCSC1=C(C(=O)O)N2C(=O)[C@@H](NC(=O)[C@H](N)c3ccccc3)[C@H]2SC1 [Cephalosporin 1c, (2′R,6R,7R)-7-(2′amino-2′-phenylacetamino)-3-methoxymethylthio-8-oxo-5-thia-1-aza-bicyclo[4.2.0]oct-2-ene-2-carboxylic acid] | 4 pig/ml | 4 μ/ml | >64 pig/ml | 32 μ/ml | 8 pig/ml | 32 μ/ml | 0.2 pig/ml | 0.5 μ/ml | 2 pig/ml | 8 μ/ml | 7.12 days | 7.54 days | – | – | –
2 | COCSC1=C(C(=O)[O-])N2C(=O)[C@@H](NC(=O)/C(=N\OC)c3csc(N)n3)[C@H]2SC1.[K+] [Cephalosporin 1a, potassium (6R,7R)-7-[(Z)-2-(2-amino-thiazol-4-yl)-2-methoximino-acetylamino]-3methoxymethylthio-8-oxo-5-thia-1-aza-bicyclo[4.2.0]oct-2-ene-2-carboxylate] | 1 pig/ml | 1 μ/ml | 2 pig/ml | 2 μ/ml | 16 pig/ml | 32 μ/ml | 0.5 pig/ml | 0.5 μ/ml | 2 pig/ml | 4 μ/ml | 15.6 days | 16.9 days | 0.2 days | 8.35 mg/kg | 0.84 mg/kg
3 | COCSC1=C(C(=O)[O-])N2C(=O)[C@@H](NC(=O)/C(=N\OCC(=O)[O-])c3csc(N)n3)[C@H]2SC1.[K+].[K+] [Cephalosporin 1b, dipotassium (6R,7R)-7-[(Z)-2-(2-amino-thiazol-4-yl)-2-carboxy-methoximino-acetylamino]-3-methoxymethylthio-8-oxo-5-thia-1-aza-bicyclo[4.2.0]oct-2-ene-2-carboxylate] | 2 pig/ml | 2 μ/ml | 2 pig/ml | 2 μ/ml | >64 pig/ml | >64 μ/ml | 4 pig/ml | 4 μ/ml | 16 pig/ml | 32 μ/ml | 16.6 days | 17.5 days | 0.113 days | – | –
